# Test results from patent publication US11613531B2, “Inhibitors of RHO associated coiled-coil containing protein kinase” (Kadmon Corporation, LLC, priority 2017, dated 2023).
# pIC50: −log10 of the molar value. Where two headings read alike, the source gives them in different places.
# Columns and labels:
# [1] = target: Recombinant ROCK2 (amino acids 1-552) (Homo sapiens (Human), UniProt O75116); assay: Z′-Lyte kinase assay, ROCK2; format: biochemical; details: for inhibition at 1 µM: 1 μM compound; for inhibition at 1 µM / inhibition at 0.5 µM: read-out: ROCK2 % inh. @ [conc]; for inhibition at 0.5 µM: 0.5 μM compound
# Chain of Recombinant ROCK2 (amino acids 1-552) (O75116 1-552): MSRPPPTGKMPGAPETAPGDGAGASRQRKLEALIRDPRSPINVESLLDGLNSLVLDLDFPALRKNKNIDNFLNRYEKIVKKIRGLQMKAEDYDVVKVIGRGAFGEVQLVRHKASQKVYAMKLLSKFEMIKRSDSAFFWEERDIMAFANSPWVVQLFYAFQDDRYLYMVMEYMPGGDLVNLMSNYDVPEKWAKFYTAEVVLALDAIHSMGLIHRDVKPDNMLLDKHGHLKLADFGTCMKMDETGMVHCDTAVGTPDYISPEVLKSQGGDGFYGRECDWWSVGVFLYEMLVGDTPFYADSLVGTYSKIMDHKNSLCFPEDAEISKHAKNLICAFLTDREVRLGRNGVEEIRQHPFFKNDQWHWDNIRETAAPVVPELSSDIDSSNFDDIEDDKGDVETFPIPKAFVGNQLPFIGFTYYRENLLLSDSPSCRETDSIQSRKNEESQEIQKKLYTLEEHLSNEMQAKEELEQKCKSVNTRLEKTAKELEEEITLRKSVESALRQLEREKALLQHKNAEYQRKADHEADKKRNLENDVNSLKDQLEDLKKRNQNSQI
# Procedure, shortened: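 IC50s derive from nonlinear curve fits over a 9-point, 2-fold dilution series, with single-point inhibition at 1 μM expressed relative to DMSO. Activity of truncated human ROCK1 (residues 1-535) and ROCK2 (residues 1-552) measured with the Z′-Lyte kinase format.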
# [2] = test system: ppMlc (T18/S19) levels in A7R5 cells; assay: A7R5 in-cell ELISA (pMLC); format: cell-based, Rat; details: Rattus norvegicus, A7R5, A7R5 cells; for inhibition at 1 µM: 1 μM compound
# Procedure, shortened: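 Cellular IC50 came from a nonlinear regression fit of ppMlc (T18/S19) signal, read by colorimetric in-cell ELISA on fixed cells. Rat A7R5 aortic smooth muscle cells had been exposed for 90 min to compounds in 9-point 2-fold serial dilution, 24 h after seeding.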
# [3] = test system: human ACTA2 gene promoter luciferase reporter in NIH3T3 cells; assay: NIH3T3 Acta2-promoter driven-luciferase assay; format: cell-based; details: NIH3T3, 24 h, read-out: NIH3T3 Acta2-luc, IC50
# Description: NIH3T3 Cells Acta2-Promoter Driven-Luciferase Assay.
# A NIH3T3 cell line stably expressing a luciferase reporter driven by the human ACTA2 gene promoter (−1000-1 bp) was established (NIH3T3-Acta2-luciferase). The cells were plated to confluence and treated with the test compounds plus TGFβ1 for 24 hr. Cells were then lysed and luciferase activity was measured using the LightSwitch luciferase kit from Active Motif.
# In vitro activities for the compounds were measured with Z′-lyte kinase kit (ThermoFisher Scientific). The percent inhibition rate was calculated by normalizing the kinase activity value obtained with 1 μM compound treatment against DMSO control value and then applied to the formula, [1-(compound/DMSO)]×100%. IC50s were calculated using the nonlinear regression curve fit function of the GraphPad Prism software with kinase activities data measured with 9 points 2-fold serial dilution of compounds treatment. In cell pMLC IC50s were calculated with data obtained from A7R5 cell experiments. A7R5 cells were treated with 9 points 2-fold serial dilution of compounds and ppMlc (T18/S19) levels were determined to calculate cellular IC50 values of the compounds using the nonlinear regression curve fit function of the GraphPad Prism software. NIH3T3 cells stably expressing ACTA2-promoter-driven-luciferase were applied to measure ROCK compounds functional IC50s in cells. Cells were plated in 96 well plates to confluence and treated with 9 points serial dilution of compounds in combination with TGFβ1 for 24 hr. Luciferase activities were measured and compound's IC50s were calculated using the nonlinear regression curve fit function of the GraphPad Prism software.
# ROCK inhibitors can be effectively rank ordered by ACTA2-promoter-driven-luciferase reporter cell assay. NIH3T3 cells stably expressing ACTA2-promoter-driven-luciferase were plated in 96 well plates to confluence and treated with 9 points serial dilution of compounds in combination with TGFβ1 for 24 hr. Luciferase activities were measured and compound's IC50s were calculated. By this assay multiple compounds of the invention gave IC50s under 200 nM.
# [4] = read-out: pMLC % inh A7R5 @ [conc]
# [5] = 9 points 2-fold serial dilution
# [6] = NIH3T3 cells, plus TGFβ1 for 24 hr
"pIC50 [1, 5]",SMILES,pIC50 [1],inhibition at 1 µM [1] [%],IC50 [2] [nM],"inhibition at 1 µM [2, 4] [%]","pIC50 ([3]; with TGFβ1, 24 hr)","inhibition at 10 µM ([2]; 10 μM compound, read-out: pMLC % inh A7R5 @ [conc]) [%]",IC50 ([2]; ppMlc (T18/S19)) [nM],"pIC50 [3, 6]",inhibition at 0.5 µM [1] [%]
,"Fc1cnc(N2CCC3NCC3C2)nc1Nc1ccc2[nH]ncc2c1 (centres unmarked) [Example 170, N-(2-(3,7-diazabicyclo[4.2.0]octan-3-yl)-5-fluoropyrimidin-4-yl)-1H-indazol-5-amine]",7.57,99.1,274,31.5,6.24,,,,
7.21,"Cc1cc(Nc2ccc3[nH]ncc3c2)nc(N2CCNCC2)n1 [Example 205, N-(6-methyl-2-(piperazin-1-yl)pyrimidin-4-yl)-1H-indazol-5-amine]",,,,,,55,415,5.89,
,"Cc1cc(Nc2ccc3[nH]ncc3c2)nc(N2CC3CC2CN3)n1 (centres unmarked) [Example 211, N-(2-(2,5-diazabicyclo[2.2.1]heptan-2-yl)-6-methylpyrimidin-4-yl)-1H-indazol-5-amine]",,104,,35.8,,,66,6.36,
7.15,"CC1CNCCN1c1ncc(F)c(Nc2ccc3[nH]ncc3c2)n1 (centres unmarked) [Example 216, N-(5-fluoro-2-(2-methylpiperazin-1-yl)pyrimidin-4-yl)-1H-indazol-5-amine]",,,,42.6,,,517,5.86,
,"Clc1cnc(N2C3CNCC2C3)nc1Nc1ccc2[nH]ncc2c1 [Example 222, N-(2-(3,6-diazabicyclo[3.1.1]heptan-6-yl)-5-chloropyrimidin-4-yl)-1H-indazol-5-amine]",8.31,102,122,58.2,6.28,,,,
,"Cc1nc(N2CC3CC2CN3)nc(Nc2ccc3[nH]ncc3c2)c1F (centres unmarked) [Example 277, N-(2-(2,5-diazabicyclo[2.2.1]heptan-2-yl)-5-fluoro-6-methylpyrimidin-4-yl)-1H-indazol-5-amine]",8.43,,45,63.4,6.61,,,,
,"c1cc2[nH]ncc2cc1Nc1nc(N2C3CCC2CNC3)nc2c1COC2 [Example 278, 2-(3,8-diazabicyclo[3.2.1]octan-8-yl)-N-(1H-indazol-5-yl)-5,7-dihydrofuro[3,4-d]pyrimidin-4-amine]",8.18,,199,59.9,5.84,,,,
,"Fc1cc2[nH]ncc2cc1Nc1nc(N2C3CNCC2C3)ncc1Cl [Example 295, N-(2-(3,6-diazabicyclo[3.1.1]heptan-6-yl)-5-chloropyrimidin-4-yl)-6-fluoro-1H-indazol-5-amine]",7.35,,646,,5.66,,,,98
,"Fc1cc2[nH]ncc2cc1Nc1nc(N2C3CCC2CNC3)ncc1Cl [Example 296, N-(2-(3,8-diazabicyclo[3.2.1]octan-8-yl)-5-chloropyrimidin-4-yl)-6-fluoro-1H-indazol-5-amine]",6.96,,860,,5.51,,,,90
,"COc1cc2[nH]ncc2cc1Nc1nc(N2C3CNCC2C3)ncc1Cl [Example 297, N-(2-(3,6-diazabicyclo[3.1.1]heptan-6-yl)-5-chloropyrimidin-4-yl)-6-methoxy-1H-indazol-5-amine]",7.08,,1430,,5.42,,,,87
,"FC(F)(F)c1cnc(N2C3CCC2CNC3)nc1Nc1ccc2[nH]ncc2c1 [Example 298, N-(2-(3,8-diazabicyclo[3.2.1]octan-8-yl)-5-(trifluoromethyl)pyrimidin-4-yl)-1H-indazol-5-amine]",7.12,,1520,,< 5.30,,,,
,"CN1CCc2nc(N3C4CCC3CNC4)nc(Nc3ccc4[nH]ncc4c3)c2C1 [Example 299, 2-(3,8-diazabicyclo[3.2.1]octan-8-yl)-N-(1H-indazol-5-yl)-6-methyl-5,6,7,8-tetrahydropyrido[4,3-d]pyrimidin-4-amine]",7.47,,1200,,< 5.00,,,,70
,"c1cc(-c2cn[nH]c2)ccc1Nc1nc(N2C3CNCC2C3)nc2c1CNC2 [Example 300, N-(4-(1H-pyrazol-4-yl)phenyl)-2-(3,6-diazabicyclo[3.1.1]heptan-6-yl)-6,7-dihydro-5H-pyrrolo[3,4-d]pyrimidin-4-amine]",,,> 10000,,< 5.00,,,,68
,"Cc1nc(N2C3CNCC2C3)nc(Nc2ccc3[nH]ncc3c2)c1F [Example 301, N-(2-(3,6-diazabicyclo[3.1.1]heptan-6-yl)-5-fluoro-6-methylpyrimidin-4-yl)-1H-indazol-5-amine]",9.40,,16,,6.75,,,,100
,"FC(F)(F)c1cnc(N2C3CNCC2C3)nc1Nc1ccc2[nH]ncc2c1 [Example 304, N-(2-(3,6-diazabicyclo[3.1.1]heptan-6-yl)-5-(trifluoromethyl)pyrimidin-4-yl)-1H-indazol-5-amine]",7.77,,413,,6.01,,,,
,"COc1cc2[nH]ncc2cc1Nc1nc(N2C3CCC2CNC3)ncc1Cl [Example 305, N-(2-(3,8-diazabicyclo[3.2.1]octan-8-yl)-5-chloropyrimidin-4-yl)-6-methoxy-1H-indazol-5-amine]",6.80,,1410,,5.42,,,,83
,"c1cc2[nH]ncc2cc1Nc1nc(N2C3CNCC2C3)nc2c1COCC2 [Example 307, 2-(3,6-diazabicyclo[3.1.1]heptan-6-yl)-N-(1H-indazol-5-yl)-7,8-dihydro-5H-pyrano[4,3-d]pyrimidin-4-amine]",8.59,,977,,5.69,,,,
,"c1cc2[nH]ncc2cc1Nc1nc(N2C3CNCC2C3)ncc1C1CC1 [Example 308, N-(2-(3,6-diazabicyclo[3.1.1]heptan-6-yl)-5-cyclopropylpyrimidin-4-yl)-1H-indazol-5-amine]",7.82,,377,,5.91,,,,
,"c1cc2[nH]ncc2cc1Nc1nc(N2C3CCC2CNC3)ncc1C1CC1 [Example 309, N-(2-(3,8-diazabicyclo[3.2.1]octan-8-yl)-5-cyclopropylpyrimidin-4-yl)-1H-indazol-5-amine]",6.93,,917,,5.48,,,,
,"c1cc2[nH]ncc2cc1Nc1nc(N2C3CNCC2C3)nc2c1CNC2 [Example 310, 2-(3,6-diazabicyclo[3.1.1]heptan-6-yl)-N-(1H-indazol-5-yl)-6,7-dihydro-5H-pyrrolo[3,4-d]pyrimidin-4-amine]",8.42,,> 5000,,< 5.30,,,,
,"Cc1c(Cl)nc(N2C3CCC2CNC3)nc1Nc1ccc2[nH]ncc2c1 [Example 315, N-(2-(3,8-diazabicyclo[3.2.1]octan-8-yl)-6-chloro-5-methylpyrimidin-4-yl)-1H-indazol-5-amine]",7.59,,168,,5.71,,,,
,"Fc1cnc(N2CC3CNCC(C2)O3)nc1Nc1ccc2[nH]ncc2c1 [Example 324, N-(2-((1,5)-9-oxa-3,7-diazabicyclo[3.3.1]nonan-3-yl)-5-fluoropyrimidin-4-yl)-1H-indazol-5-amine]",6.57,,2080,,5.86,,,,71
,"CCN(C)c1cc(Nc2ccc3[nH]ncc3c2)nc(N2C3CCC2CNC3)n1 [Example 332, 2-(3,8-diazabicyclo[3.2.1]octan-8-yl)-N4-ethyl-N6-(1H-indazol-5-yl)-N4-methylpyrimidine-4,6-diamine]",8.92,,18,,7.10,,,,

SMILES,"pIC50 [1, 5]",pIC50 [1],inhibition at 1 µM [1] [%],IC50 [2] [nM],"inhibition at 1 µM [2, 4] [%]","pIC50 ([3]; with TGFβ1, 24 hr)","inhibition at 10 µM ([2]; 10 μM compound, read-out: pMLC % inh A7R5 @ [conc]) [%]",IC50 ([2]; ppMlc (T18/S19)) [nM],"pIC50 [3, 6]",inhibition at 0.5 µM [1] [%]
"Fc1cnc(N2C3CCC2CNC3)nc1Nc1ccc2[nH]ncc2c1 [Example 221, N-(2-(3,8-diazabicyclo[3.2.1]octan-8-yl)-5-fluoropyrimidin-4-yl)-1H-indazol-5-amine]",8.43,,,,39.6,,,50,6.61,
